Data from patent US20220304992A1, “METHODS OF REJUVENATING AGED TISSUE BY INHIBITING 15-HYDROXYPROSTAGLANDIN DEHYDROGENASE (15-PGDH)” (The Board of Trustees of the Leland Stanford Junior …, priority 2019, published 2022).

Assays:
mdx4cv/mTRKO(G2) mice = assay: Plantar flexion tetanic force in Duchenne muscular dystrophy mouse model; format: in vivo; conditions: 8 month old mice, 4 weeks of treatment
Method: For ABT-263 treatments, 20 month old C57/B16 mice were treated with vehicle (ethanol:polyethylene glycol 400:Phosal 50 PG) or ABT-263 (in ethanol:polyethylene glycol 400:Phosal 50 PG) by oral gavage for 2 cycles of 1 week with a 2 week rest period between cycles as described previously (1). For the Duchenne muscular dystrophy (DMD) mouse model, we used 8-10 month old mdx4cv/mTRKO(G2) generated as previously described (2).
Time and distance to exhaustion was performed as previously described (4) for SW-treated mice and their controls (FIG. 3A).
The peak isometric torque (N·mm) of the ankle plantarflexors was assessed as previously described (8,9). Briefly, the foot of anesthetized mice was placed on a footplate attached to a servomotor (model 300C-LR; Aurora Scientific). Two Pt-Ir electrode needles (Aurora Scientific) […] subcutaneously over the tibial nerve, just posterior/posterior-medial to the knee. The ankle joint was secured at a 90° angle. The peak isometric torque was achieved by varying the current delivered to the tibial nerve at a frequency of 200 Hz and a 0.1-ms square wave pulse. We performed three tetanic measurements on each muscle, with 1 min recovery between each measurement. Data were collected with the Aurora Scientific Dynamic Muscle Data Acquisition and Analysis Software.

[1] = tested on: 15-PGDH overexpressing young muscles; format: in vivo, mouse
Method: (§1) Middle aged (18-20 mo.) and aged (>24 mo.) mice C57BL/6 were obtained the US National Institute on Aging (NIA) for aged muscle studies, and young (2-4 mo.) wild-type C57BL/6 mice from Jackson Laboratory. […] Time and distance to exhaustion was performed as previously described (4) for SW-treated mice and their controls.
(§2) Overexpression of Hpgd (15-PGDH) was achieved by integrating AAV9 under CMV promoter and with eGFP under IRES (AA9-CMV-m-HPGD-IRES-eGFP) (Vector Biolabs). The control virus was AAV9-tMCK-eGFP-WPRE.
(§3) The peak isometric torque (N·mm) of the ankle plantarflexors was assessed as previously described (21, 22). Briefly, the foot of anesthetized mice was placed on a footplate attached to a servomotor (model 300C-LR; Aurora Scientific). Two Pt-Ir electrode needles (Aurora Scientific) were inserted percutaneously and subcutaneously over the tibial nerve, just posterior/posterior-medial to the knee. The ankle joint was secured at a 90° angle. The peak isometric torque was achieved by varying the current delivered to the tibial nerve at a frequency of 200 Hz and a 0.1—ms square wave pulse. We performed three tetanic measurements on each muscle, with 1 min recovery between each measurement. Data were collected with the Aurora Scientific Dynamic Muscle Data Acquisition and Analysis Software.

[2] = tested on: aged mice with PTGDS knockdown; assay: SW treatment of aged mice with AAV9 shRNA knockdown of PTGDS; format: in vivo, mouse; conditions: aged muscles, SW one month
Method: as §1, §2, §3

[3] = tested on: EP4 receptor on aged myofibers; assay: SW treatment of aged EP4f/f mice with MCK-Cre ablation of EP4 in myofibers; format: in vivo, mouse; conditions: loss of EP4 expression in myofibers, SW one month
From the text: We performed all experiments and protocols in compliance with the institutional guidelines of Stanford University and Administrative Panel on Laboratory Animal Care (APLAC). Middle aged (18-20 mo.) and aged (>24 mo.) mice C57BL/6 were obtained the US National Institute on Aging (NIA) for aged muscle studies, and young (2-4 mo.) wild-type C57BL/6 mice from Jackson Laboratory. INK-ATTAC mice were generated as previously described (1). INK-ATTAC healthspan assessments. INK-ATTAC mice were crossed onto the C57BL6/J genetic background and maintained in specific-pathogen free housing on a 12-hour dark/light cycle for study duration. At 12 months of age, male mice were either utilized for baseline healthspan assessments and terminal muscle harvest or randomized to receive twice-weekly vehicle or AP20187 (2 mg/kg intraperitoneal injection; B/B homodimerizer, Clontech) until assessment and sacrifice at 28 months of age (2). […] Time and distance to exhaustion was performed as previously described (4) for SW-treated mice and their controls. […]
The peak isometric torque (N·mm) of the ankle plantarflexors was assessed as previously described (21, 22). […]

pFOXO = assay: Immunoblots of muscle lysates from aged vehicle and SW treated mice; format: in vivo, mouse; conditions: aged muscles, SW vs vehicle
Method: Total lysates were prepared using lysis buffer (50 mM Tris-HCl pH 7.5, 150 mM NaCl, 4 mM CaCl, 1.5% Triton X-100, protease inhibitors and micrococcal nuclease). For tissue extracts, lysates were homogenized a FastPrep 24 homogenizer (MP Biomedicals) for 40 seconds at a speed of 6 m/s. We used the following antibodies: 15-PGDH (Santa Cruz Biotechnology, cat # sc-271418); phospho-AKT (Ser 473) (Cell Signaling cat #4060), AKT (Cell signaling cat #2920); phospho-FoxO1 (Thr24)/FoxO3a (Thr32) Antibody (Cell Signaling cat #9464T); Foxo3a (Cell Signaling cat #2497); phospho-CREB (Ser133) (Cell Signaling cat #9198S); phospho-S6 ribosomal protein (Ser235/236) (Cell Signaling cat#4858); SMC1 (Bethyl Laboratories cat# A300-055A-T). We used HRP conjugated secondary antibodies and developed by incubating the membranes with ECL Western Blotting Substrate (Nacalai USA) and imaging using the ChemiDoc Imaging System (BioRad).

[4] = 15-PGDH overexpressing young muscles, daily i.p.

## CCCC[S+]([O-])c1sc2nc(-c3cccs3)cc(-c3ccccc3)c2c1N (stereo not shown) [SW033291, 2-(butylsulfinyl)-4-phenyl-6-(thiophen-2-yl)thieno[2,3-b]pyridin-3-amine]
mdx4cv/mTRKO(G2) mice
  increase in muscle strength compared to vehicle treated controls: 22%
[1]; [4]
  mass of TA muscle: increased
  strength (plantar flexion tetanic force): increased
[1]; young mice
  muscle atrophy induced by overexpression of 15-PGDH: rescued
[2]
  endurance: increase
  muscle force: increase
  muscle mass: increase
[3]
  beneficial effect on muscle mass: abrogated
  beneficial effect on muscle strength: abrogated
pFOXO
  pFOXO: increased
